Laboratory results published in patent US20250275996A1, “COMBINATION OF TUNICAMYCIN-TYPE ANTIBIOTIC WITH POLYMYXINS AND USES THEREOF” (priority 2024, published 2025).

Tests used:
S. cerevisiae = assay: MIC by resazurin staining assay, yeast; type: cell-based, Saccharomyces cerevisiae; conditions: 24 hours at 30° C., TYG
Method: (§1) The […] growth inhibition (MIC) using natural tunicamycin (TUN), a tunicamycin derivative TunR2, polymyxin B, or a combination of polymyxin B with TUN or TunR2 were tested. Testing was performed using the resazurin staining assay. The resazurin staining assay uses the reduction by bacterial viable cells of the blue, non-fluorescent, and non-toxic dye, resazurin, to pink, fluorescent resorufin to assess the viability of biofilms. The Minimal Inhibitory Concentration (MIC) values where determined using standard microbiological methods, for example by spotting dilutions of the compounds or combinations on solid agar media plates after inoculating with bacteria, yeast, or buffer alone, followed by incubating for a defined period. This method results in clearing zones on agar plates.
(§2) To determine the MIC for polymyxin B alone, plates inoculated with E. coli MG1655 (Gram-negative bacterium), P. aeruginosa ATCC 2783 (Gram-negative bacterium), B. subtilis MW10 (Gram-positive bacterium), S. cerevisiae (eukaryote) in TYG, or DMSO alone (Control) were spotted with a dilution gradient of polymyxin B, and incubated for 24 hours at 30° C.

P. aeruginosa ATCC 2783 = assay: MIC by resazurin staining assay, P. aeruginosa; type: cell-based, Pseudomonas aeruginosa
Method: as §1, §2
(§3) To determine the MIC for TUN or TunR2 in the presence or absence of polymyxin B, plates inoculated with E. coli MG1655, or P. aeruginosa ATCC 2783 in TYG, were spotted with a dilution gradient of Tun or TunR2 in the presence or absence of polymyxin B at sub-MIC concentration (MIC/2), or DMSO alone (Control). Images of two plates inoculated with E. coli are shown in FIG. 4A and FIG. 4B, and images of two plates inoculated with P. aeruginosa are shown in FIG. 4C and FIG. 4D.
The activity of Cefquinome alone, or in the presence of TunR2, polymyxin B, or polymyxin B and TunR2 on P. aeruginosa was tested. The MIC was determined using the resazurin staining assay described in Example 1.
Plates inoculated with P. aeruginosa, or DMSO alone (Control) in TYG were spotted with a dilution gradient of Cefquinome in the presence of TunR2, polymyxin B, or polymyxin B and TunR2, and incubated for 24 hours at 37° C.

E. coli MG1655 = assay: MIC by resazurin staining assay, E. coli; type: cell-based, Escherichia coli
Method: as §1, §2, §3
(§4) The activity of TUN or TunR2 in the presence or absence of polymyxin B on Serratia marcescens (a honey bee pathogen) or E. coli was tested. The MIC was determined using the resazurin staining assay described in Example 1.
Plates inoculated with S. marcescens B-2544, E. coli, or DMSO alone (Control) in TYG were spotted with a dilution gradient of TUN or TunR2 in the presence or absence of a sub-MIC concentration of polymyxin B (half the MIC concentration), and incubated for 24 hours at 37° C. An image of a plate inoculated with S. marcescens is shown in FIG. 7A, and an image of a plate inoculated with E. coli is shown in FIG. 7B. […] The results obtained for E. coli compare well with the MICs of other antibiotics as taught by m. de Boer et al. (2015, “Minimum Inhibitory Concentrations of Selected Antimicrobials Against Escherichia Coli and Trueperella pyogenes of Bovine Uterine Origin,” J Dairy Sci. 98:4427-4438).

B. subtilis MW10 = assay: MIC by resazurin staining assay, B. subtilis; type: cell-based, Bacillus subtilis; conditions: 24 hours at 30° C., TYG
Method: as §1, §2

S. marcescens B-2544 = assay: MIC by resazurin staining assay, S. marcescens; type: cell-based, Serratia marcescens; conditions: 24 hours at 37° C.
Method: as §1, §4
Plates inoculated with S. marcescens B-2544, E. coli, or DMSO alone (Control) in TYG were spotted with a dilution gradient of TUN or TunR2 in the presence or absence of a sub-MIC concentration of polymyxin B (half the MIC concentration), and incubated for 24 hours at 37° C. […]

[1] = alone, dilution series, 24 hours at 37° C.

## polymyxin B
S. cerevisiae
  effect on yeast (MIC for polymyxin B alone): not detectable
P. aeruginosa ATCC 2783; Pseudomonas, polymyxin alone
  MIC of polymyxin: 5.0 µg/mL
E. coli MG1655; E. coli, polymyxin alone
  MIC of polymyxin: 0.625 µg/mL
B. subtilis MW10
  MIC for polymyxin B alone: 2.5 µg/mL

## tunicamycin
P. aeruginosa ATCC 2783; [1]
  effect on P. aeruginosa in the absence of polymyxin B: neither Tun nor TunR2 had noticeable effect
P. aeruginosa ATCC 2783; with polymyxin B at MIC/2 (2.5 μg/mL), 24 hours at 37° C.
  growth of P. aeruginosa in the presence of polymyxin B: no E. coli or P. aeruginosa grew
S. marcescens B-2544; S. marcescens, sub-MIC polymyxin B (half the MIC)
  MIC in the presence of polymyxin B: 5.0 µg/mL
S. marcescens B-2544; absence of polymyxin B, any of the concentrations tested
  effect on S. marcescens when used alone: neither TUN nor TunR2 had a detectable effect
E. coli MG1655; Example 2, E. coli, sub-MIC polymyxin B (half the MIC), 24 hours at 37° C.
  MIC in the presence of polymyxin B: 0.313 µg/mL
E. coli MG1655; Example 2, absence of polymyxin B, 24 hours at 37° C., any of the concentrations tested
  effect on E. coli when used alone: neither TUN nor TunR2 had a detectable effect
E. coli MG1655; [1]
  effect on E. coli in the absence of polymyxin B: neither Tun nor TunR2 had noticeable effect
E. coli MG1655; with polymyxin B at MIC/2 (0.313 μg/mL), 24 hours at 37° C.
  growth of E. coli in the presence of polymyxin B: no E. coli or P. aeruginosa grew

## CO/N=C(\C(=O)N[C@@H]1C(=O)N2C(C(=O)[O-])=C(C[n+]3cccc4c3CCCC4)CS[C@H]12)c1csc(N)n1 [Cefquinome]
P. aeruginosa ATCC 2783; P. aeruginosa in TYG, Cefquinome alone, 48 hours at 37° C.
  MIC for Cefquinome (FIG. 8 legend): 10.0 µg/mL
P. aeruginosa ATCC 2783; P. aeruginosa, 24 hours at 37° C.
  MIC for Cefquinome alone: 10 µg/mL
P. aeruginosa ATCC 2783; P. aeruginosa, with 2.5 μg/mL polymyxin B and 6.25 μg/mL TunR2, 24 hours at 37° C.
  MIC for Cefquinome in the presence of polymyxin B and TunR2: 1.25 µg/mL
P. aeruginosa ATCC 2783; P. aeruginosa, with 2.5 μg/mL polymyxin B, 24 hours at 37° C.
  MIC for Cefquinome in the presence of polymyxin B: 5 µg/mL
P. aeruginosa ATCC 2783; P. aeruginosa, with 6.25 μg/mL TunR2, 24 hours at 37° C.
  MIC for Cefquinome in the presence of TunR2: 10 µg/mL
